Assay results published in ChEMBL document CHEMBL1136260, “[18F]FMDAA1106 and [18F]FEDAA1106: two positron-emitter labeled ligands for peripheral benzodiazepine receptor (PBR)” (Bioorg Med Chem Lett, 2003).

Tests used:
[1] = target: GABA-A receptor; anion channel; assay: In vitro displacement of [11C]Flumazenil from (CBR) central GABA-A benzodiazepine receptor of rat brain
[2] = Partition coefficient (logP); assay type: physicochemical; details: octanol/water
[3] = target: Translocator protein (Rattus norvegicus, UniProt P16257); assay: In vitro binding affinity for PBR (peripheral benzodiazepine receptor) in rat brain; assay type: tissue-based
Translocator protein, sequence (P16257 whole entry, looked up): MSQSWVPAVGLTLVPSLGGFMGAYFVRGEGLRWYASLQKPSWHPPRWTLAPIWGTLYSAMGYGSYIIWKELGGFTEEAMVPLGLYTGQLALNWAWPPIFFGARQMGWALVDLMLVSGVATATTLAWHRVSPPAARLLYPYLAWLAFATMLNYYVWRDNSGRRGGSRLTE

IC50 [1] [µM] | logP [2] | Ki [3] [pM] | SMILES
> 10 | – | – | CC[C@@H](C)N(C)C(=O)c1cc2ccccc2c(-c2ccccc2Cl)n1 [PK-11195]
> 10 | 3.81 | – | COc1ccc(OCCF)c(CN(C(C)=O)c2cc(F)ccc2Oc2ccccc2)c1
> 10 | 3.65 | 43 | COc1ccc(OC)c(CN(C(C)=O)c2cc(F)ccc2Oc2ccccc2)c1
> 10 | 3.7 | – | COc1ccc(OCF)c(CN(C(C)=O)c2cc(F)ccc2Oc2ccccc2)c1
